Assay results published in publication PMC5290001 (Clinical cancer research : an official journal of the …, 2016).
“And” between values parts separate entries of the source, which are not always exact repeats. Identical values can stand only once. Like-named read-outs stand apart in the source and are kept apart here.

Experiments:
[1] = Temozolomide plasma pharmacokinetics; type: in vivo, human
AML = details: cited from earlier work; for Response rate: temozolomide 200 mg/m^2/day x 7 days, adults ≥ 60 years
[2] = Phase 1 dose escalation: toxicity; type: in vivo, human
[3] = Veliparib plasma pharmacokinetics; type: in vivo, human; details: for half-life: human, plasma, oral
[4] = test system: Ser139-phospho-H2AX (γH2AX); assay: H2AX phosphorylation in viable peripheral blood cells and CD34+ subset; type: in vivo, human
[5] = temozolomide 200 mg/m^2/day alone (day 3), veliparib dose 20–200 mg
[6] = veliparib 200 mg, administered alone
[7] = single dose of veliparib, 6 hours, relative to pretreatment, DL5/DL6

Cn1nnc2c(C(N)=O)ncn2c1=O [Temozolomide, temozolomide]
Cmax ([1]; human, plasma, oral, Cmax, temozolomide 200 mg/m^2/day in combination with veliparib 20–200 mg (day 8)): 12000 ± 3800 ng/mL
half-life ([1]; human, plasma, oral, t1/2, temozolomide 200 mg/m^2/day in combination with veliparib 20–200 mg (day 8)): 1.9 ± 0.4 h
Tmax ([1]; human, plasma, oral, tmax (median), temozolomide 200 mg/m^2/day in combination with veliparib 20–200 mg (day 8)): 1 h
Cl/F, Obs. [1, 5]: 9.2 ± 3.2 L/h
V/F, Obs. [1, 5]: 25 ± 9.1 L
V/F ([1]; temozolomide 200 mg/m^2/day in combination with veliparib 20–200 mg (day 8)): 28±10 (25) L
Overall response rate (AML; MGMT+ cases): 6%
Overall response rate (AML; MGMT− AMLs): 60%
Patients achieving a response (AML; newly diagnosed AML or high-risk MDS with low MGMT expression): 53%
Response rate (AML; newly diagnosed AML): 22%
Response rate (AML; relapsed/refractory AML): 5%
Temozolomide dose at the MTD / RP2D ([2]; for 7 days, with veliparib 150 mg twice a day): 200 mg/m^2/day

C[C@]1(c2nc3c(C(N)=O)cccc3[nH]2)CCCN1 [Veliparib, veliparib]
half-life ([3]; t1/2, veliparib 120 mg in combination with temozolomide 200 mg/m^2/day (day 8)): 9.1 ± 8 h
half-life ([3]; t1/2, veliparib 150 mg in combination with temozolomide 200 mg/m^2/day (day 8)): 5.3 ± 1.7 h
half-life ([3]; t1/2, veliparib 200 mg in combination with temozolomide 200 mg/m^2/day (day 8)): 3.6 ± 2.8 h
V/F ([3]; veliparib 20 mg alone (day 1), temozolomide dose 150 or 200 mg/m^2/day): 285 ± 175 L
V/F ([3]; veliparib 20 mg in combination with temozolomide 150 or 200 mg/m^2/day (day 8)): 180±49 (3) L
V/F ([3]; veliparib 120 mg alone (day 1), temozolomide dose 200 mg/m^2/day): 181±50 (10) L
V/F ([3]; veliparib 120 mg in combination with temozolomide 200 mg/m^2/day (day 8)): 191±165 (8) L
V/F ([3]; veliparib 150 mg alone (day 1), temozolomide dose 200 mg/m^2/day): 190±72 (16) L
V/F ([3]; veliparib 150 mg in combination with temozolomide 200 mg/m^2/day (day 8)): 109±45 (10) L
V/F ([3]; veliparib 200 mg alone (day 1), temozolomide dose 200 mg/m^2/day): 84±26 (4) L
V/F ([3]; veliparib 200 mg in combination with temozolomide 200 mg/m^2/day (day 8)): 77±59 (3) L
Increase in AUC at the highest administered dose [3, 6]: 1.4 fold
Increase in Cmax at the highest administered dose [3, 6]: 2.5 fold
Maximum tolerated dose (MTD) / RP2D of veliparib ([2]; given with temozolomide 200 mg/m^2 daily for 7 days, veliparib for 9 days): 150 mg twice daily
Increase in phospho-H2AX positive CD34+ cells ([4]; 1 patient with HI, day 1): 2.3 fold
Patients with increased H2AX phosphorylation in CD34+ subset [4, 7]: 8 of 12
Patients with increased H2AX phosphorylation in PB cells [4, 7]: 4 of 12
Increase in H2AX phosphorylation in PB cells ([4]; two patients who achieved CR): ≥ 2 fold
Increase in phospho-H2AX positive CD34+ cells ([4]; two patients who achieved CR, day 1, 6 hours post- versus pre-treatment): 2.3 fold and 1.3 fold
